Test results taken from patent publication US9738610B2, “Indazole derivatives and uses thereof” (Whitehead Institute for Biomedical Research, priority 2012, dated 2017).
Read-outs that look alike come from different tables or passages of the source.

Key:
[1] = system: C. albicans CaCi-2; assay: CaCi-2 growth inhibition in the presence of 8 μg/ml fluconazole (Alamar Blue); format: cell-based, Candida albicans; conditions: Candida albicans
[2] = system: C. albicans CaCi-2; assay: Secondary single-agent (no-fluconazole) activity assay; format: cell-based, Candida albicans; conditions: for IC50: Candida albicans
Summary of the method: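 C. albicans CaCi-2 in RPMI synthetic defined medium with 1% Pen/Strep, starting OD600 0.00015, exposed to compound alone (no fluconazole) for 48 h at 37 °C without agitation. Growth read as Alamar Blue fluorescence (1:200 final) after 2 h at room temperature.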

[3] = system: C. albicans CaCi-8; assay: microbe, parasite or virus in culture; format: cell-based, Candida albicans; conditions: Candida albicans
Summary of the method: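 Hits tested for chemosensitization of the fluconazole-resistant CaCi-8 strain, for inherent antifungal activity without fluconazole, and for mammalian fibroblast toxicity by fluorescence reporter. Geldanamycin plus fluconazole served as positive control; a Saccharomyces assay assigned mechanism to Hsp90, calcineurin or other pathways.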

[4] = system: NIH-3T3 mammalian fibroblasts; assay: Counterscreen mammalian cell toxicity assay (fibroblast toxicity); format: cell-based, murine; conditions: for IC50: Mus musculus
[5] = PBS stability assay; format: physicochemical; conditions: 48-hour incubation, 23° C.
[6] = PBS solubility; conditions: PBS, aqueous buffer
[7] = Plasma stability; conditions: % remaining in human plasma after a 5-hour incubation
[8] = Plasma protein binding; conditions: human, plasma

## COC(=O)Cn1nc(-c2cccc(OC)c2)c2ccccc21 [Compound I-4, methyl 2-(3-(3-methoxyphenyl)-1H-indazol-1-yl)acetate]
[1]; CACI2, read-out: CaCi-2 IC50 with 8 μg/ml fluconazole
  IC50: 440 nM
[1]; CACI2, read-out: CaCi-2 growth inhibition IC50 (nM)
  IC50: 440 nM
[2]
  Dose-dependent activity against C. albicans CaCi-2: inactive
[2]; CACI2, read-out: Activity without fluconazole IC50 (nM)
  IC50: > 26000 nM
[2]; CACI2, read-out: CaCi-2 IC50 without fluconazole
  IC50: > 26000 nM
[2]; activity without fluconazole vs CaCi-2 growth inhibition with fluconazole
  Fold Selective* (Anti-target IC50/Target IC50): 59
[3]; CACI8, read-out: CaCi-8 IC50 with 8 μg/ml fluconazole, Table 12
  IC50: 1200 nM
[3]; CACI8, read-out: CaCi-8 growth inhibition IC50 (nM), in the presence of fluconazole
  IC50: 1210 nM
[4]
  Dose-dependent activity against murine 3T3 fibroblasts: inactive
  Mammalian fibroblast IC50 relative to CaCi-2 IC50 with fluconazole: >59-fold
[4]; NIH3T3, read-out: Fibroblast toxicity IC50 (nM)
  IC50: > 26000 nM
[4]; NIH3T3, read-out: IC50 in the mammalian fibroblast assay
  IC50: > 26000 nM
[4]; fibroblast toxicity vs CaCi-2 growth inhibition
  Fold Selective* (Anti-target IC50/Target IC50): 59
[5]
  Stability in PBS solution, remaining: > 99%
[6]
  solubility: < 1 µM
[7]
  Plasma Stability: approximately 3%
[8]
  fraction unbound: 0.05
